The species entered for data set [1] is Bos taurus. Put plainly: Inhibition of LPS-induced PAI1 production in BCAEC at 1 uM after 24 hrs relative to T-686. Format: functional.
The species entered for data set [2] is Bos taurus. Put plainly: Inhibition of LPS-induced PAI1 production in BCAEC at 10 uM after 24 hrs relative to T-686. It counts as functional.
The nature of data set [3]: Metabolic stability in dog blood after 1 hr. It counts as ADME, tissue-based, Canis lupus familiaris. The following applies: read-out: Stability.
Data set [4] can be described thus: Solubility in water. Format: physicochemical.
The test system of data set [5] is Rattus norvegicus. Put plainly: Antithrombotic activity in rat venous thrombosis model assessed as decrease in thrombus weight at 3 mg/kg, po administered for 3 days after 2 hrs last dose. It counts as functional. On the set-up: scale not given: the % may be the effect or the level left.
The subject of data set [6] is Rattus norvegicus. Put plainly: Toxicity in rat assessed as decrease in locomotor activity at 300 mg/kg, po. Format: organism-based. On the set-up: dose 300 mg/kg, route oral. Particulars: in vivo.

Values after ≈ are worked out from the molar mass of the structure shown.

As a reminder, the solubility is the concentration that dissolves in the medium under given conditions.

For `COC(=O)C(=C(/C)c1cc(OC)cc(OC)c1)/C(=C\c1ccccc1)C(=O)N1CCN(C)CC1`, the Activity in the data set filed under Bos taurus [1] stood at 0.3.
With `COC(=O)C(=C/c1cc(OC)c(OC)c(OC)c1)/C(=C\c1ccccc1)C(N)=O`, the Activity in the data set filed under Bos taurus [2] turned out to be 0.9.
The same measure, in the same setting: in the case of `COC(=O)C(/C(=C\c1ccccc1)C(N)=O)=C(\C)c1cc(OC)c(OC)c(OC)c1` it was 0.3.
Consider `COc1cc(/C=C2/C(=O)NC(=O)/C2=C/c2ccccc2)cc(OC)c1OC`, for which the remaining at 1 h in data set [3] turned out to be 79%. Also, the Activity in the data set listed under Bos taurus [1] and in the data set filed under Bos taurus [2] was 1 in each case. In data set [4], this compound showed a solubility of 9 µg/mL (≈ 0.0246 mM).
On to `COC(=O)C(=C(/C)c1cc(OC)cc(OC)c1)/C(=C\c1ccccc1)C(=O)Nc1ccncc1`, for which the Activity in the data set on Rattus norvegicus [5] is 58%; in the data set listed under Bos taurus [1] it was 1.8; with Rattus norvegicus [6], “Toxic”. The remaining at 1 h in data set [3] turned out to be 87%. In data set [4], this compound displayed a solubility of more than 3000 µg/mL.
In turn, `COC(=O)C(=C(/C)c1cc(OC)cc(OC)c1)/C(=C\c1ccccc1)C(=O)NC1CCN(C)CC1` gave an Activity in the data set listed under Bos taurus [1] of 0.8.
Still for that read-out and setting: to `COC(=O)C(=C(/C)c1cc(OC)cc(OC)c1)/C(=C\c1ccccc1)C(=O)Nc1nnn[nH]1` belongs 0.1.
Still for that read-out and setting: in the case of `COC(=O)C(=C(/C)c1cc(OC)cc(OC)c1)/C(=C\c1ccccc1)C(=O)Nc1cccc2cccnc12` it was 0.4.
As for `COC(=O)C(=C\c1cc(OC)c(OC)c(OC)c1)/C(=C\c1ccccc1)C(N)=O`, the remaining at 1 h in data set [3] was found to be 75%. The Activity in the data set listed under Bos taurus [2] is 0.7.
On to `COC(=O)C(=C/c1cc(OC)c(OC)c(OC)c1)/C(=C/c1ccccc1)C(N)=O`, for which the Activity in the data set filed under Bos taurus [2] amounted to 0.7.
For the compound `COC(=O)C(=C(/C)c1cc(OC)cc(OC)c1)/C(=C\c1ccccc1)C(=O)Nc1ncccn1`, the Activity in the data set filed under Bos taurus [1] was 0.1.
In the data set filed under Bos taurus [2], `COC(=O)C(=C/c1cc(OC)c(OC)c(OC)c1)/C(C(N)=O)=C(\C)c1ccccc1` yielded an Activity of 0.3.
Same read-out and setting: in the case of `COC(=O)C(=C/c1cc(OC)c(OC)c(OC)c1)/C(C(N)=O)=C(/C)c1ccccc1` it was 0.2.
With `COC(=O)C(=C(/C)c1cc(OC)cc(OC)c1)/C(=C\c1ccccc1)C(=O)NN1CCN(C)CC1`, the Activity in the data set on Rattus norvegicus [5] was 50%; in the data set listed under Bos taurus [1], 1.5; in the data set on Rattus norvegicus [6], “Non-toxic”. Moreover, in data set [3], the remaining at 1 h is 89%. In data set [4], the solubility is more than 4000 µg/mL.
As for `COC(=O)C(=C(/C)c1cc(OC)cc(OC)c1)/C(=C\c1ccncc1)C(N)=O`, the remaining at 1 h in data set [3] was determined as 88%. The Activity in the data set listed under Bos taurus [1] is 1.5. Moreover, in data set [4], the solubility is more than 4000 µg/mL.
In the same order, the values of `COC(=O)C(=C(/C)c1cc(OC)cc(OC)c1)/C(=C\c1ccccc1)C(=O)Nc1cccnc1` are 83%, 2.2 and more than 2000 µg/mL.
In the data set filed under Bos taurus [1], `COC(=O)C(=C(/C)c1cc(OC)cc(OC)c1)/C(=C\c1ccccc1)C(=O)NN1CC[N+](C)([O-])CC1` had an Activity of 0.2.
In the data set listed under Bos taurus [1], `COC(=O)C(=C(/C)c1cc(OC)cc(OC)c1)/C(=C\c1ccccc1)C(=O)O` registered an Activity of 0.4.
`COC(=O)C(=C(/C)c1cc(OC)cc(OC)c1)/C(=C\c1ccccc1)C(=O)Nn1cnnc1`: in the data set filed under Bos taurus [1], the Activity came out at 0.6.
As for `COC(=O)C(=C(/C)c1cc(OC)c(OC)c(OC)c1)/C(=C\c1ccccc1)C(N)=O`, in data set [3], the remaining at 1 h is 96%. The figures for the Activity in the data set listed under Bos taurus [1] and in the data set filed under Bos taurus [2] were 1.5 and 1, respectively. In data set [4], this compound yielded a solubility of 106 µg/mL (≈ 0.258 mM).
Consider `COC(=O)C(=C(/C)c1cc(OC)cc(OC)c1)/C(=C\c1ccccc1)C(=O)NCc1ccncc1`, for which the remaining at 1 h in data set [3] turned out to be 76%. The compound further returned an Activity in the data set filed under Bos taurus [1] of 2.1. The compound also showed a solubility in data set [4] of more than 2000 µg/mL.
The compound `COC(=O)C(=C(/C)c1cc(OC)cc(OC)c1)/C(=C\c1cccnc1)C(N)=O` showed an Activity in the data set listed under Bos taurus [1] of 0.8.
Consider `COC(=O)C(=C(/C)c1cc(OC)cc(OC)c1)/C(=C\c1ccccc1)C(=O)NCc1cccnc1`, for which the Activity in the data set on Rattus norvegicus [5] was 53%; in the data set listed under Bos taurus [1], 1.3; in the data set on Rattus norvegicus [6], “Toxic”. In addition, the remaining at 1 h in data set [3] amounted to 87%. In data set [4], this compound yielded a solubility of 1600 µg/mL (≈ 3.39 mM).
